Experimental data: PMC11048482 (Biomolecules, 2024)
Where two headings read alike, the source gives them in different places.

Target: T1, SP_0166 (Streptococcus pneumoniae, UniProt A0A0H2UNA7)
T1 construct: full length, 368 residues, 42,757 Da; pET-28a(+) BamHI/XhoI, C-terminal 6xHis tag kept; expressed in E. coli BL21(DE3)
Assay: LC-MS/MS of agmatine formed from arginine
Type: biochemical

T1 sequence (A0A0H2UNA7 entry or part of it): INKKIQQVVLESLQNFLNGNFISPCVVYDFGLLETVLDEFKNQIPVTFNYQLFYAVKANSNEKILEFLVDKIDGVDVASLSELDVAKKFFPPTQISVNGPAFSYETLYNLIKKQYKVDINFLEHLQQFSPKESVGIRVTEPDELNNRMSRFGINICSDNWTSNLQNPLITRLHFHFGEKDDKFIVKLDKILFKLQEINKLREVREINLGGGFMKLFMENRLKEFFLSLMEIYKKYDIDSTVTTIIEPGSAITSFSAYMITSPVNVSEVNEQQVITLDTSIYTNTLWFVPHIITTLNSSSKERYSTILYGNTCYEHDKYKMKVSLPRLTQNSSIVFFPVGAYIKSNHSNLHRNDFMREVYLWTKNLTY

SMILES	IC50 (read-out: DFMA IC50)	IC50 (read-out: DFMO IC50)
N=C(N)NCCCC(N)(C(=O)O)C(F)F (centres unmarked) [DFMA]	0.0216 ± 0.0104 mM	
NCCCC(N)(C(=O)O)C(F)F (centres unmarked) [DFMO]		27 ± 4.5 mM
